# Key:
# Assay type in all cases: in vivo
# Aedes aegypti [1] = test: Insecticide effectiveness in the vapour phase against mosquitoes, impregnated paper unit in 20 m^3 room (Example 9); details: 5 mg/unit; for % mortality 24 h: 24th hour from start of test; for % Knock-down 8 h: at end of 8th hour; for Knock-down time KT10 / Knock-down time KT50 / Knock-down time KT90: average of 3 cages
# Protocol: (§1) Test units consisting of a paper support 20 cm×10 cm in size were impregnated with the compound of examples 3, 7 and 8 and, for comparative purposes, with the reference compounds transfluthrin and metofluthrin, at an amount of 5.00 mg/unit for each compound (pure). Using a common laboratory stand, the test unit was placed at a height of about 30 cm from the ground along one side of a 20 m^3 room (L 3.00 m×D 2.49 m×H 2.69 m). In order to homogenize the insecticidal air within the room, a small electric fan was placed on the floor diagonal to the surface of the unit, in the nearest corner at a distance of about 50 cm from the unit. Three metal cages (L 8.4 cm×Ø 8.0 cm×mesh 1.0 mm) for every mosquito species, each containing 20 3-4 day old individuals of mixed sex, were placed along the other three sides of the room, at a height of 1.80 m from the ground and at a distance of 0.45 m from the respective walls. During the test the room was kept closed and temperature and humidity were controlled (T 23-26° C., RH 49-61%). The fan was switched on and left on for 8 continuous hours. The times needed to reach 10%, 50% and 90% insect knock-down (KT10, KT50 and KT90, respectively) were recorded.
# (§2) Every 2 hours and up to the 6th hour after the fan was switched on, new cages were introduced containing insects (set of 3 cages for each species).
# (§3) At the end of the 8th hour, the percentage of insects knocked down in all the cages was determined, then the insects were removed from the room and transferred into an uncontaminated atmosphere within closed containers containing a sugary solution. The percentage mortality was recorded at the 24th hour from the start of the test.
# (§4) The results obtained are summarized in tables 1 and 2 and the data are averages for the 3 cages.
# Culex quinquefasciatus [2] = test: as above; details: 5 mg/unit; for % mortality 24 h: 24th hour from start of test; for % Knock-down 8 h: at end of 8th hour; for Knock-down time KT10 / Knock-down time KT50 / Knock-down time KT90: average of 3 cages
# Protocol: as §1, §2, §3, §4
# Aedes aegypti [3] = test: Insecticide effectiveness in the vapour phase against mosquitoes, impregnated paper unit in 20 m^3 room (Example 5); details: 5 mg/unit; for % mortality 24 h: 24th hour from start of test; for % Knock-down 8 h: at end of 8th hour; for Knock-down time KT10 / Knock-down time KT50 / Knock-down time KT90: average of 3 cages
# Protocol: (§5) Test units consisting of a paper support 20 cm×10 cm in size were impregnated with the compound of example 3 and, for comparative purposes, with the reference compounds transfluthrin and metofluthrin, at an amount of 5.00 mg/unit for each compound (pure).
# (§6) Using a common laboratory stand, the test unit was placed at a height of about 30 cm from the ground along one side of a 20 m^3 room (L 3.00 m×D 2.49 m×H 2.69 m). In order to homogenize the insecticidal air within the room, a small electric fan was placed on the floor diagonal to the surface of the unit, in the is nearest corner at a distance of about 50 cm from the unit. Three metal cages (L 8.4 cm×Ø 8.0 cm×mesh 1.0 mm) for every mosquito species, each containing 20 3-4 day old individuals of mixed sex, were placed along the other three sides of the room, at a height of 1.80 m from the ground and at a distance of 0.45 m from the respective walls. During the test the room was kept closed and temperature and humidity were controlled (T 23-26° C., RH 49-61%).
# (§7) The fan was switched on and left on for 8 continuous hours. The times needed to reach 10%, 50% and 90% insect knock-down (KT10, KT50 and KT90, respectively) were recorded.
# as §2, §3, §4
# Culex quinquefasciatus [4] = test: as above; details: 5 mg/unit; for % mortality 24 h: 24th hour from start of test; for % Knock-down 8 h: at end of 8th hour; for Knock-down time KT10 / Knock-down time KT50 / Knock-down time KT90: average of 3 cages
# Protocol: as §5, §6, §7, §2, §3, §4
# Blattella germanica = test: Effectiveness of residual insecticide on surfaces (glazed tiles) against cockroaches (Example 6); details: 50 mg/m^2 on glazed tiles; for percentage knock-down after 24 hours: 24 h exposure
# Protocol: Solutions of the compound of example 3 in acetone and, for comparison, of the reference compounds Transfluthrin and Metofluthrin were applied from a distance of 12 cm onto glazed tiles (Ostara model, 15×15 cm=225 cm^2) by means of a suitable glass sprayer, so as to obtain an applied amount of pure compound equal to 50 mg/m^2. After treatment the tiles were transferred to and maintained in a closed test room at controlled temperature and humidity (24-25° C., RH 50-60%). Glass rings (H 5.5 cm×Ø 9.5 cm), with their internal surface treated with talc, and each containing 5 cockroaches, were positioned at the centre of the tiles for each of the assessment times of 24 hours, 3, 7, 10 and 14 days following treatment. For each assessment day, the insects were maintained on the surface for 24 hours and the time (hours, minutes) necessary to attain 100% knock-down followed by death, or percentage knock-down at the end of 24 hours, were recorded.
smiles,measurement,setting,value
"C=CC=C[C@@H]1[C@@H](C(=O)OCc2coc(Cc3ccccc3)c2)C1(C)C (mixture of isomers) [Example 7, (2-benzyl-4-hydroxymethylfuryl) (1R,3R)-3-((E/Z)-Buta-1,3-dienyl)-2,2-dimethylcyclopropane-1-carboxylate]",% mortality 24 h,Aedes aegypti [1]; insect exposure after 0 hours,79%
same,% Knock-down 8 h,Aedes aegypti [1]; insect exposure after 0 hours,5%
same,% mortality 24 h,Aedes aegypti [1]; insect exposure after 2 hours,79%
same,% Knock-down 8 h,Aedes aegypti [1]; insect exposure after 2 hours,0%
same,% mortality 24 h,Aedes aegypti [1]; insect exposure after 4 hours,65%
same,% Knock-down 8 h,Aedes aegypti [1]; insect exposure after 4 hours,0%
same,% mortality 24 h,Culex quinquefasciatus [2]; insect exposure after 0 hours,70%
same,% Knock-down 8 h,Culex quinquefasciatus [2]; insect exposure after 0 hours,8%
same,% mortality 24 h,Culex quinquefasciatus [2]; insect exposure after 2 hours,35%
same,% Knock-down 8 h,Culex quinquefasciatus [2]; insect exposure after 2 hours,2%
same,% mortality 24 h,Culex quinquefasciatus [2]; insect exposure after 4 hours,23%
same,% Knock-down 8 h,Culex quinquefasciatus [2]; insect exposure after 4 hours,0%
"CC=CC1C(C(=O)OCc2c(F)c(F)c(COC)c(F)c2F)C1(C)C (centres unmarked) [Metofluthrin, (2,3,5,6-tetrafluoro-4-methoxy-methyl)benzyl-2,2-dimethyl-3-prop-1-enylcyclopropanecarboxylate]",% mortality 24 h,Aedes aegypti [3]; insect exposure after 0 hours,100%
same,% Knock-down 8 h,Aedes aegypti [3]; insect exposure after 0 hours,100%
same,Knock-down time KT10,Aedes aegypti [3]; insect exposure after 0 hours,23 min
same,Knock-down time KT50,Aedes aegypti [3]; insect exposure after 0 hours,30 min
same,Knock-down time KT90,Aedes aegypti [3]; insect exposure after 0 hours,39 min
same,% mortality 24 h,Aedes aegypti [3]; insect exposure after 2 hours,100%
same,% Knock-down 8 h,Aedes aegypti [3]; insect exposure after 2 hours,100%
same,Knock-down time KT10,Aedes aegypti [3]; insect exposure after 2 hours,7 min
same,Knock-down time KT50,Aedes aegypti [3]; insect exposure after 2 hours,9 min
same,Knock-down time KT90,Aedes aegypti [3]; insect exposure after 2 hours,15 min
same,% mortality 24 h,Aedes aegypti [3]; insect exposure after 4 hours,100%
same,% Knock-down 8 h,Aedes aegypti [3]; insect exposure after 4 hours,100%
same,Knock-down time KT10,Aedes aegypti [3]; insect exposure after 4 hours,6 min
same,Knock-down time KT50,Aedes aegypti [3]; insect exposure after 4 hours,8 min
same,Knock-down time KT90,Aedes aegypti [3]; insect exposure after 4 hours,14 min
same,% mortality 24 h,Culex quinquefasciatus [4]; insect exposure after 0 hours,100%
same,% Knock-down 8 h,Culex quinquefasciatus [4]; insect exposure after 0 hours,100%
same,Knock-down time KT10,Culex quinquefasciatus [4]; insect exposure after 0 hours,26 min
same,Knock-down time KT50,Culex quinquefasciatus [4]; insect exposure after 0 hours,30 min
same,Knock-down time KT90,Culex quinquefasciatus [4]; insect exposure after 0 hours,35 min
same,% mortality 24 h,Culex quinquefasciatus [4]; insect exposure after 2 hours,100%
same,% Knock-down 8 h,Culex quinquefasciatus [4]; insect exposure after 2 hours,100%
same,Knock-down time KT10,Culex quinquefasciatus [4]; insect exposure after 2 hours,11 min
same,Knock-down time KT50,Culex quinquefasciatus [4]; insect exposure after 2 hours,16 min
same,Knock-down time KT90,Culex quinquefasciatus [4]; insect exposure after 2 hours,24 min
same,% mortality 24 h,Culex quinquefasciatus [4]; insect exposure after 4 hours,100%
same,% Knock-down 8 h,Culex quinquefasciatus [4]; insect exposure after 4 hours,100%
same,Knock-down time KT10,Culex quinquefasciatus [4]; insect exposure after 4 hours,11 min
same,Knock-down time KT50,Culex quinquefasciatus [4]; insect exposure after 4 hours,16 min
same,Knock-down time KT90,Culex quinquefasciatus [4]; insect exposure after 4 hours,20 min
same,% mortality 24 h,Aedes aegypti [1]; insect exposure after 0 hours,100%
same,% Knock-down 8 h,Aedes aegypti [1]; insect exposure after 0 hours,100%
same,Knock-down time KT10,Aedes aegypti [1]; insect exposure after 0 hours,16 min
same,Knock-down time KT50,Aedes aegypti [1]; insect exposure after 0 hours,25 min
same,Knock-down time KT90,Aedes aegypti [1]; insect exposure after 0 hours,34 min
same,% mortality 24 h,Aedes aegypti [1]; insect exposure after 2 hours,100%
same,% Knock-down 8 h,Aedes aegypti [1]; insect exposure after 2 hours,100%
same,Knock-down time KT10,Aedes aegypti [1]; insect exposure after 2 hours,7 min
same,Knock-down time KT50,Aedes aegypti [1]; insect exposure after 2 hours,9 min
same,Knock-down time KT90,Aedes aegypti [1]; insect exposure after 2 hours,15 min
same,% mortality 24 h,Aedes aegypti [1]; insect exposure after 4 hours,100%
same,% Knock-down 8 h,Aedes aegypti [1]; insect exposure after 4 hours,100%
same,Knock-down time KT10,Aedes aegypti [1]; insect exposure after 4 hours,6 min
same,Knock-down time KT50,Aedes aegypti [1]; insect exposure after 4 hours,8 min
same,Knock-down time KT90,Aedes aegypti [1]; insect exposure after 4 hours,14 min
same,% mortality 24 h,Culex quinquefasciatus [2]; insect exposure after 0 hours,100%
same,% Knock-down 8 h,Culex quinquefasciatus [2]; insect exposure after 0 hours,100%
same,Knock-down time KT10,Culex quinquefasciatus [2]; insect exposure after 0 hours,22 min
same,Knock-down time KT50,Culex quinquefasciatus [2]; insect exposure after 0 hours,32 min
same,Knock-down time KT90,Culex quinquefasciatus [2]; insect exposure after 0 hours,36 min
same,% mortality 24 h,Culex quinquefasciatus [2]; insect exposure after 2 hours,100%
same,% Knock-down 8 h,Culex quinquefasciatus [2]; insect exposure after 2 hours,100%
same,Knock-down time KT10,Culex quinquefasciatus [2]; insect exposure after 2 hours,11 min
same,Knock-down time KT50,Culex quinquefasciatus [2]; insect exposure after 2 hours,16 min
same,Knock-down time KT90,Culex quinquefasciatus [2]; insect exposure after 2 hours,22 min
same,% mortality 24 h,Culex quinquefasciatus [2]; insect exposure after 4 hours,100%
same,% Knock-down 8 h,Culex quinquefasciatus [2]; insect exposure after 4 hours,100%
same,Knock-down time KT10,Culex quinquefasciatus [2]; insect exposure after 4 hours,10 min
same,Knock-down time KT50,Culex quinquefasciatus [2]; insect exposure after 4 hours,14 min
same,Knock-down time KT90,Culex quinquefasciatus [2]; insect exposure after 4 hours,20 min
same,percentage knock-down after 24 hours,Blattella germanica; 1 day after treatment,80%*)
same,Time to reach 100% knock-down,"Blattella germanica; 1 day after treatment, one of the 5 individuals recovered within 24 hours",2 h (24 h
same,percentage knock-down after 24 hours,Blattella germanica; 3 days after treatment,24 h 40%
same,percentage knock-down after 24 hours,Blattella germanica; 7 days after treatment,24 h 0%
same,percentage knock-down after 24 hours,Blattella germanica; 10 days after treatment,24 h 0%

# From US9247750B2, “Polyenylcyclopropanecarboxylic esters with high insecticidal activity” (Endura S.P.A., priority 2007, dated 2016)
